Series [1] can be described thus: logP determination by HPLC (reversed-phase C 18), EEC Directive 79/831 Annex V.A8. The series is classed as physicochemical. The note with it: 43° C. The method, then:
The logP values given in the tables and preparation examples above are determined in accordance with EEC Directive 79/831 Annex V.A8 by HPLC (High Performance Liquid Chromatography) using a reversed-phase column (C 18). Temperature: 43° C.
In the acidic range, the determination is carried out at pH 2.3 using the mobile phases 0.1% aqueous phosphoric acid and acetonitrile; linear gradient from 10% acetonitrile to 90% acetonitrile.
In the neutral range, the determination is carried out at pH 7.5 using the mobile phases 0.01 molar aqueous phosphate buffer solution and acetonitrile; linear gradient from 10% acetonitrile to 90% acetonitrile.
Calibration is carried out using unbranched alkan-2-ones (of 3 to 16 carbon atoms) with known logP values (determination of the logP values by the retention times using linear interpolation between two successive alkanones).

Another series concerns Lucilia cuprina larvae. In words: Blowfly larvae test/Development-inhibitory action. It is filed as in vivo. The note with it: 100 ppm; mortality of the larvae after 48 hours. The procedure:
(§1) 20 mg of active compound are dissolved in one ml of dimethyl sulphoxide. To prepare a suitable formulation, the solution of active compound is diluted with water to the concentration desired in each case.
About 20 Lucilia cuprina larvae are introduced into a test tube which contains about 1 cm^3 of horsemeat and 0.5 ml of the preparation of active compound to be tested. The activity of the preparation of active compound is determined after 48 hours as the mortality of the larvae in %.
The test tubes are then transferred into a beaker whose bottom is covered with sand. After a further 12 days, the test tubes are removed and the pupae and flies are counted. The development-inhibitory action is stated as inhibition of hatching in % (ratio of pupae to flies that have hatched) after 1.5 times the development period of an untreated control.

Series [2] has as its system cotton aphid (Aphis gossypii). In words: Aphis gossypii test. The series is classed as in vivo. The settings on record: 200 ppm, cotton leaves dipped.
Series [3] has as its system larvae of the mustard beetle (Phaedon cochleariae). In words: Phaedon larvae test. The settings on record: 1000 ppm, cabbage leaves dipped.
Series [4] has as its system Amblyomma hebraeum nymphs. In words: Test with polyphagous tick nymphs, dip treatment. The series is classed as in vivo. The settings on record: nymphs immersed for 1 minute; after 4 weeks. The method, then: as §1
10 nymphs which have sucked themselves full are immersed for 1 minute into the preparation of active compound to be tested. The animals are transferred to Petri dishes (Ø 9.5 cm) fitted with filter discs and covered. After 4 weeks of storage in a climatized room, the mortality is determined.
100% means that none of the animals has undergone normal ecdysis. 0% means that all animals have undergone ecdysis.

Series [5] has as its system greenhouse red spider mite (Tetranychus urticae). In words: Tetranychus test (OP-resistant/dip treatment). The series is classed as in vivo. The note with it: 100 ppm, bean plants dipped. The procedure:
After the desired period of time, the activity in % is determined.

Series [6] concerns peach aphid (Myzus persicae). In words: Myzus test. It is filed as in vivo. The settings on record: cabbage leaves dipped.
Series [7] deals with larvae of the armyworm (Spodoptera frugiperda). In words: Spodoptera frugiperda test. It is filed as in vivo. The note with it: 1000 ppm, cabbage leaves dipped.
Series [8] deals with larvae of the armyworm (Spodoptera exigua). In words: Spodoptera exigua test. The settings on record: 1000 ppm, cabbage leaves dipped. The series is classed as in vivo.
The test system of series [9] is Heliothis virescens caterpillars. In words: Heliothis virescens test. It is filed as in vivo. The settings on record: 1000 ppm, soya bean shoots dipped.
Series [10] concerns caterpillars of the diamondback moth (Plutella xylostella). In words: Plutella test. The series is classed as in vivo. The settings on record: 1000 ppm, cabbage leaves dipped.
[11] abbreviates: reversed-phase C18 HPLC column, pH 2.3, 0.1% aqueous phosphoric acid/acetonitrile, read-out: log P (pH 2.3).
Where [12] appears, read: pH 2.3, 0.1% aqueous phosphoric acid/acetonitrile, read-out: log P (pH 2.3).

Read-outs that look alike come from different tables or passages of the source.

One may read the melting point as the temperature of the solid-liquid transition.

With `CN(C)S(=O)(=O)Oc1ccc(-c2ccccc2C2CCC(=O)N2)cc1` (single isomer, unassigned; isomer 2) [“ortho” isomer, 2′-(5-oxo-2-pyrrolidinyl)-1,1′-biphenyl-4-yl dimethylsulphamate], the chromatographic logP in series [1] (setting [11]) came out at 2.28.
With `O=S(=O)(Oc1ccc(C2CCC(c3c(F)cccc3F)=N2)cc1)C(F)(F)F` (stereo not shown) [I-1, 4-[5-(2,6-difluorophenyl)-3,4-dihydro-2H-pyrrol-2-yl]phenyl trifluoromethanesulphonate], the “Action in % after 48 hours” value in the series with Lucilia cuprina larvae was found to be 100%. Moreover, the “Kill rate in % after 6 days” value in series [2] and in series [6] (20 ppm) was 95% throughout. For the same molecule, the “Kill rate in % after 7 days” value in [3] is 100%; in series [5] it was 95%. Moreover, in series [1] (setting [11]), the chromatographic logP came to 3.49. Besides, the “activity (mortality / no normal ecdysis)” value in series [4] is listed as “good activity”.
Consider `O=S(=O)(Oc1ccc(-c2ccc(C3CCC(c4c(F)cccc4F)=N3)cc2)cc1)C(F)(F)C(F)(F)C(F)(F)C(F)(F)F` (stereo not shown) [I-3, 4′-[5-(2,6-Difluorophenyl)-3,4-dihydro-2H-pyrrol-2-yl]-1,1′-biphenyl-4-yl 1,1,2,2,3,3,4,4,4-nonafluoro-1-butanesulphonate], for which the figures for the “Kill rate in % after 7 days” value in [3] and in series [5] were 100% and 98%, respectively. The chromatographic logP in [1] (setting [12]) is 5.57. The “Kill rate in % after 6 days” value in series [7] amounted to 100%.
As for `CN(C)S(=O)(=O)Oc1ccc(-c2ccc(C3CCC(c4c(F)cccc4F)=N3)cc2)cc1` (stereo not shown) [I-4, 4′-[5-(2,6-Difluorophenyl)-3,4-dihydro-2H-pyrrol-2-yl]-1,1′-biphenyl-4-yl dimethylsulphamate], the “Kill rate in % after 7 days” value in [3] was found to be 100%. The chromatographic logP in [1] (setting [11]) is 3.06. For the same molecule, the “Kill rate in % after 6 days” value in series [7] was found to be 100%.
`O=S(=O)(Oc1ccc(C2CCC(c3c(F)cccc3F)=N2)cc1)c1ccc(OC(F)(F)F)cc1` (stereo not shown) [I-6, 4-[5-(2,6-difluorophenyl)-3,4-dihydro-2H-pyrrol-2-yl]phenyl 4-(trifluoromethoxy)benzenesulphonate]: the “Action in % after 48 hours” value in the series with Lucilia cuprina larvae is listed as 90%. Besides, the figures for the “Kill rate in % after 7 days” value in series [3] and in [5] were 90% and 98%, respectively. In series [1] (setting [11]), the chromatographic logP turned out to be 3.83. Further, the “Kill rate in % after 6 days” value in series [6] (1000 ppm) is listed as 95%.
Take `O=S(=O)(Oc1ccc(-c2ccc(C3CCC(c4c(F)cccc4F)=N3)cc2)cc1)C(F)(F)F` (stereo not shown) [I-7, 4′-[5-(2,6-difluorophenyl)-3,4-dihydro-2H-pyrrol-2-yl]-1,1′-biphenyl-4-yl trifluoromethanesulphonate]: the “Kill rate in % after 6 days” value in series [8], in [9], in series [10] and in series [7] was 100% throughout. The “Action in % after 48 hours” value with Lucilia cuprina larvae stood at 100%. Further, the “Kill rate in % after 7 days” value was determined as 100% in series [3] and 98% in series [5]. The chromatographic logP in series [1] (setting [11]) is 4.15. For the same molecule, in [4], the “activity (mortality / no normal ecdysis)” value is on record as “good activity”.
With `CC(C)(C)OC(=O)NC(CCC(=O)c1c(F)cccc1F)c1ccc(OS(=O)(=O)C(F)(F)F)cc1` (stereo not shown) [II-1, 4-[1-[(tert-butoxycarbonyl)amino]-4-(2,6-difluorophenyl)-4-oxobutyl]phenyl trifluoromethanesulphonate], the chromatographic logP in [1] (setting [12]) came to 4.38.
Still for that read-out and setting: with `CC(C)(C)OC(=O)N[C@H](CCC(=O)c1c(F)cccc1F)c1ccc(OS(=O)(=O)C(F)(F)F)cc1` [II-2, 4-[(1R)-1-[(tert-Butoxycarbonyl)amino]-4-(2,6-difluorophenyl)-4-oxobutyl]phenyl trifluoromethanesulphonate] the figure was 4.37; with `CC(C)(C)OC(=O)NC(CCC(=O)c1c(F)cccc1F)c1ccc(-c2ccc(OS(=O)(=O)C(F)(F)C(F)(F)C(F)(F)C(F)(F)F)cc2)cc1` (stereo not shown) [II-3, 4′-[1-[(tert-Butoxycarbonyl)amino]-4-(2,6-difluorophenyl)-4-oxobutyl]-1,1′-biphenyl-4-yl 1,1,2,2,3,3,4,4,4-nonafluoro-1-butanesulphonate], 6.05.
Consider `CN(C)S(=O)(=O)Oc1ccc(-c2ccc(C(CCC(=O)c3c(F)cccc3F)NC(=O)OC(C)(C)C)cc2)cc1` (stereo not shown) [II-4, tert-Butyl 4-(2,6-difluorophenyl)-1-(4′-{[(dimethylamino)sulphonyl]oxy}-1,1′-biphenyl-4-yl)-4-oxobutylcarbamate], for which the chromatographic logP in series [1] (setting [11]) worked out at 4.25.
Same read-out and setting: the same measure for `CN(C)S(=O)(=O)Oc1ccc(-c2ccc(C3CCC(=O)N3)cc2)cc1` (stereo not shown) [IX-b-1, 4′-(5-oxo-2-pyrrolidinyl)-1,1′-biphenyl-4-yl dimethylsulphamate]: 2.23.
In the case of `O=C1CCC(c2ccc(-c3ccc(OS(=O)(=O)C(F)(F)C(F)(F)C(F)(F)C(F)(F)F)cc3)cc2)N1` (stereo not shown) [IX-b-2, 4′-(5-Oxo-2-pyrrolidinyl)-1,1′-biphenyl-4-yl 1,1,2,2,3,3,4,4,4-nonafluoro-1-butanesulphonate], the chromatographic logP in [1] (setting [12]) was 4.21.
`CC1(C)OB(c2ccc(C3CCC(c4c(F)cccc4F)=N3)cc2)OC1(C)C` (stereo not shown) [V-1, 5-(2,6-difluorophenyl)-2-[4-(4,4,5,5-tetramethyl-1,3,2-dioxaborolan-2-yl)phenyl]-3,4-dihydro-2H-pyrrole]: in [1] (reversed-phase C18 HPLC column, pH 7.5, 0.01 molar aqueous phosphate buffer/acetonitrile, read-out: log P (pH 7.5)), the chromatographic logP stood at 4.46.
Turning to `CC(C)(C)OC(=O)N1C(=O)CCC1c1ccc(OS(=O)(=O)C(F)(F)F)cc1` (stereo not shown) [VII-1, tert-butyl 2-oxo-5-(4-{[(trifluoromethyl)-sulphonyl]oxy}phenyl)-1-pyrrolidinecarboxylate], the chromatographic logP in [1] (setting [11]) was 3.31.
Same read-out and setting: the same measure for `CC(C)(C)OC(=O)N1C(=O)CC[C@@H]1c1ccc(OS(=O)(=O)C(F)(F)F)cc1` [VII-2, tert-butyl 2-oxo-(5R)-5-(4-{[(trifluoromethyl)sulphonyl]oxy}phenyl)-1-pyrrolidinecarboxylate]: 3.31.
As for `CC(C)(C)OC(=O)N1C(=O)CCC1c1ccc(-c2ccc(OS(=O)(=O)C(F)(F)C(F)(F)C(F)(F)C(F)(F)F)cc2)cc1` (stereo not shown) [VII-3, tert-Butyl 2-(4′-{[(1,1,2,2,3,3,4,4,4-nonafluorobutyl)sulphonyl]oxy}-1,1′-biphenyl-4-yl)-5-oxo-1-pyrrolidinecarboxylate], the chromatographic logP in series [1] (setting [12]) is 5.44.
With `CN(C)S(=O)(=O)Oc1ccc(-c2ccc(C3CCC(=O)N3C(=O)OC(C)(C)C)cc2)cc1` (stereo not shown) [VII-4, tert-Butyl 2-(4′-{[(dimethylamino)sulphonyl]oxy}-1,1′-biphenyl-4-yl)-5-oxo-1-pyrrolidinecarboxylate], the chromatographic logP in series [1] (setting [11]) amounted to 3.31.
For `O=S(=O)(Oc1ccc(-c2ccccc2)cc1)C(F)(F)C(F)(F)C(F)(F)C(F)(F)F` [XIII-1, 1,1′-biphenyl-4-yl 1,1,2,2,3,3,4,4,4-nonafluoro-1-butanesulphonate], the chromatographic logP in series [1] (setting [12]) turned out to be 5.81.
Regarding `CN(C)S(=O)(=O)Oc1ccc(-c2ccccc2)cc1` [XIII-2, 1,1′-biphenyl-4-yl dimethylsulphamate], the melting point was in the range of 105 to 107 °C. The chromatographic logP in series [1] (setting [12]) was determined as 3.51.

For the origin of these results see patent publication US20030220386A1, “Delta 1-pyrrolines for use as pesticides” (priority 2000, published 2003).
